Entries after “also recorded” stand apart in the source; their conditions may differ. Like-named read-outs stand apart in the source and are kept apart here.
Legend:
SARS-CoV PL^pro [1] = molecular target: T1, SARS-CoV PL^pro (Severe acute respiratory syndrome coronavirus, UniProt P0C6X7); format: biochemical
MERS-CoV 3CL^pro = MERS-CoV 3CL^pro (Middle East respiratory syndrome-related coronavirus, UniProt K9N7C7); test: biochemical
SARS-CoV 3CL^pro = SARS-CoV 3CL^pro (Severe acute respiratory syndrome coronavirus, UniProt P0C6X7); test: biochemical
MERS-CoV PL^pro = MERS-CoV PL^pro (Middle East respiratory syndrome-related coronavirus, UniProt K9N7C7); test: biochemical
SARS-CoV PL^pro [2] = molecular target: T1, SARS-CoV PL^pro; test: biochemical; format: binding; details: for kon: read-out: association rate constant ka; for koff: read-out: dissociation rate constant kd

Sequence of MERS-CoV PL^pro (K9N7C7 1436-1803 limits assumed): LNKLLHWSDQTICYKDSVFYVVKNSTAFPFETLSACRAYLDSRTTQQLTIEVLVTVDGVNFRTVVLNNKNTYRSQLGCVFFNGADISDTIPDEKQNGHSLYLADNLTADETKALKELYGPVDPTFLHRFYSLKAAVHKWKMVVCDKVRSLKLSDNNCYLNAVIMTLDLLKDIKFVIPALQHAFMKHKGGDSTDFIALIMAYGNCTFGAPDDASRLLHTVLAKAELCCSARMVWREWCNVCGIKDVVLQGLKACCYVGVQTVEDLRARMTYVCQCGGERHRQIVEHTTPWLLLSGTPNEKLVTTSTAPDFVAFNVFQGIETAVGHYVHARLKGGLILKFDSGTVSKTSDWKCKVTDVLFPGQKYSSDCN
Sequence of MERS-CoV 3CL^pro (K9N7C7 3247-3553 limits assumed): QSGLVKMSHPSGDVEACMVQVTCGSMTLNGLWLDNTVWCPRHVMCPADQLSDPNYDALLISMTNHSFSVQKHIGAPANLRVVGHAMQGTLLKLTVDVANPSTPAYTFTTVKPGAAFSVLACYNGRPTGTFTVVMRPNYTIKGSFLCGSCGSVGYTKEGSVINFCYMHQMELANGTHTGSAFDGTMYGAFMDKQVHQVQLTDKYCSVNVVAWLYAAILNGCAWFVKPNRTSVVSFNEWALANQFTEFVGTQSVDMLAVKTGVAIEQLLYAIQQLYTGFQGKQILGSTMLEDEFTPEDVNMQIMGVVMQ

O=c1c(O)c(-c2ccc(O)c(O)c2)oc2cc(O)cc(O)c12 [Quercetin, quercetin, reference compound]
SARS-CoV PL^pro, LRLRGG-AMC, Inhibition type (SARS-CoV PL^pro [1]): Noncompetitive (7.0 ± 0.7)
IC50 (MERS-CoV 3CL^pro): 34.8 ± 1.2 µM

O=C(/C=C/c1ccc(O)cc1)c1ccc(O)cc1O [Isoliquiritigenin, isoliquiritigenin, reference compound]
IC50 (SARS-CoV 3CL^pro): 61.9 ± 11 µM
SARS-CoV PL^pro, LRLRGG-AMC, Inhibition type (SARS-CoV PL^pro [1]): Noncompetitive (23.0 ± 0.9)

CC(C)=CCc1cc(-c2oc3cc(O)c(CC=C(C)C)c(O)c3c(=O)c2O)cc(O)c1O [Compound 4, papyriflavonol A]
IC50 (SARS-CoV 3CL^pro): 104 ± 17.4 µM
SARS-CoV PL^pro, LRLRGG-AMC, Inhibition type (SARS-CoV PL^pro [1]): noncompetitive inhibition; also recorded: Noncompetitive (5.9 ± 0.4)
IC50 (MERS-CoV 3CL^pro): 64.5 ± 4.9 µM
IC50 (MERS-CoV PL^pro): 113 ± 7.3 µM
Kd (SARS-CoV PL^pro [2]): 212 µM
kon (SARS-CoV PL^pro [2]): 21 M⁻¹ s⁻¹
koff (SARS-CoV PL^pro [2]): 0.00445 s⁻¹
melting point: 202 to 204 °C

CC1(C)C=Cc2cc(C(=O)/C=C/c3ccc(O)cc3)c(O)cc2O1 [Compound 3, 4-hydroxyisolonchocarpin]
IC50 (SARS-CoV 3CL^pro): 203 ± 3.9 µM
SARS-CoV PL^pro, LRLRGG-AMC, Inhibition type (SARS-CoV PL^pro [1]): Noncompetitive (27.7 ± 1.7)
IC50 (MERS-CoV 3CL^pro): 194 ± 15.6 µM
IC50 (MERS-CoV PL^pro): 172 ± 10.2 µM

CC(C)=CCc1c([C@@H]2CCc3ccc(O)cc3O2)cc2c(c1O)OC(C)(C)C=C2 [Compound 7, kazinol B]
IC50 (SARS-CoV 3CL^pro): 233 ± 6.7 µM
SARS-CoV PL^pro, LRLRGG-AMC, Inhibition type (SARS-CoV PL^pro [1]): Noncompetitive (36.7 ± 2.7)
IC50 (MERS-CoV PL^pro): 94.9 ± 13.1 µM

O=c1c(O[C@@H]2O[C@H](CO)[C@H](O)[C@H](O)[C@H]2O)c(-c2ccc(O)c(O)c2)oc2cc(O)cc(O)c12 [Quercetin-β-galactoside, quercetin-β-galactoside, reference compound]
SARS-CoV PL^pro, LRLRGG-AMC, Inhibition type (SARS-CoV PL^pro [1]): Noncompetitive (56.1 ± 2.5)
IC50 (MERS-CoV 3CL^pro; pH 6, read-out: MERS-CoV 3CL^pro, IC50): 68 ± 2.4 µM
IC50 (MERS-CoV PL^pro; pH 5.5, read-out: MERS-CoV PL^pro, IC50): 129 ± 14.5 µM

COc1cc(O)ccc1CCCc1cc(O)c(O)c(CC=C(C)C)c1CC=C(C)C [Compound 10, kazinol J]
IC50 (SARS-CoV 3CL^pro): 64.2 ± 1.7 µM
SARS-CoV PL^pro, LRLRGG-AMC, Inhibition type (SARS-CoV PL^pro [1]): Noncompetitive (10.7 ± 0.9)
IC50 (MERS-CoV 3CL^pro): 109 ± 3.7 µM
IC50 (MERS-CoV PL^pro): 55 ± 1.3 µM
Kd (SARS-CoV PL^pro [2]): 804 µM
kon (SARS-CoV PL^pro [2]): 7.3 M⁻¹ s⁻¹
koff (SARS-CoV PL^pro [2]): 0.00591 s⁻¹

CC(C)=CCc1cc(C2CCc3ccc(O)cc3O2)cc(O)c1O (stereo not drawn) [Compound 5, 3′-(3-methylbut-2-enyl)-3′,4′,7-trihydroxyflavane]
IC50 (SARS-CoV 3CL^pro): 30.2 ± 6.8 µM
SARS-CoV PL^pro, LRLRGG-AMC, Inhibition type (SARS-CoV PL^pro [1]): Noncompetitive (15.9 ± 0.8)
IC50 (MERS-CoV 3CL^pro): 34.7 ± 2 µM
IC50 (MERS-CoV PL^pro): 48.8 ± 6.6 µM

CC(C)=CCc1c([C@@H]2CCc3ccc(O)cc3O2)cc2c(c1O)OC(C)(C)C(O)C2O (stereo partly drawn) [Compound 8, broussoflavan A]
IC50 (SARS-CoV 3CL^pro): 92.4 ± 2.1 µM
SARS-CoV PL^pro, LRLRGG-AMC, Inhibition type (SARS-CoV PL^pro [1]): Noncompetitive (23.4 ± 1.6)
IC50 (MERS-CoV 3CL^pro): 126 ± 17.4 µM
IC50 (MERS-CoV PL^pro): 49.1 ± 7.5 µM
melting point: 238 to 240 °C

CC(C)=CCc1c(CCCc2ccc(O)cc2O)cc(O)c(O)c1CC=C(C)C [Compound 9, kazinol F]
IC50 (SARS-CoV 3CL^pro): 43.3 ± 10.4 µM
SARS-CoV PL^pro, LRLRGG-AMC, Inhibition type (SARS-CoV PL^pro [1]): Noncompetitive (12.1 ± 0.7)
IC50 (MERS-CoV 3CL^pro): 135 ± 5.1 µM
IC50 (MERS-CoV PL^pro): 39.5 ± 5.1 µM

CC(C)=CCc1cc(C(=O)/C=C/c2ccc(O)c(O)c2)c(O)cc1O [Compound 2, broussochalcone A]
IC50 (SARS-CoV 3CL^pro): 88.1 ± 13 µM
SARS-CoV PL^pro, LRLRGG-AMC, Inhibition type (SARS-CoV PL^pro [1]): noncompetitive inhibition; also recorded: Noncompetitive (8.0 ± 0.4)
IC50 (MERS-CoV 3CL^pro): 36.2 ± 0.4 µM
IC50 (MERS-CoV PL^pro): 42.1 ± 5 µM
Kd (SARS-CoV PL^pro [2]): 130 µM
kon (SARS-CoV PL^pro [2]): 29.9 M⁻¹ s⁻¹
koff (SARS-CoV PL^pro [2]): 0.00388 s⁻¹

CC(C)=CCc1cc([C@@H]2CCc3ccc(O)cc3O2)c(CC=C(C)C)c(O)c1O [Compound 6, kazinol A]
IC50 (SARS-CoV 3CL^pro): 84.8 ± 10.4 µM
SARS-CoV PL^pro, LRLRGG-AMC, Inhibition type (SARS-CoV PL^pro [1]): Noncompetitive (40.5 ± 3.4)
IC50 (MERS-CoV PL^pro): 88.5 ± 3.9 µM

O=c1c(O)c(-c2ccc(O)cc2)oc2cc(O)cc(O)c12 [Kaempferol, kaempferol, reference compound]
IC50 (SARS-CoV 3CL^pro): 116 ± 7.1 µM
SARS-CoV PL^pro, LRLRGG-AMC, Inhibition type (SARS-CoV PL^pro [1]): Noncompetitive (13.7 ± 0.8)
IC50 (MERS-CoV 3CL^pro): 35.3 ± 5.3 µM
IC50 (MERS-CoV PL^pro): 206.6 ± 1.7 µM

CC(C)=CCc1cc(C(=O)/C=C/c2ccc(O)cc2)c(O)cc1O [Compound 1, broussochalcone B]
IC50 (SARS-CoV 3CL^pro): 57.8 ± 0.5 µM
SARS-CoV PL^pro, LRLRGG-AMC, Inhibition type (SARS-CoV PL^pro [1]): Noncompetitive (6.6 ± 0.5)
IC50 (MERS-CoV 3CL^pro): 27.9 ± 1.2 µM
IC50 (MERS-CoV PL^pro): 113 ± 10.1 µM
Kd (SARS-CoV PL^pro [2]): 74 µM
kon (SARS-CoV PL^pro [2]): 56 M⁻¹ s⁻¹
koff (SARS-CoV PL^pro [2]): 0.00412 s⁻¹

Source: PMC6010046, “Evaluation of polyphenols from Broussonetia papyrifera as coronavirus protease inhibitors” (Journal of Enzyme Inhibition and Medicinal Chemistry, 2017)
